Source: patent US8802688B2, “Substituted acetyl-coa carboxylase inhibitors” (Pfizer Inc., priority 2011, dated 2014)
pIC50: −log10 of the molar value.

What was measured:
[1] = biological target: T1, recombinant human ACC1 (rhACC1) (Homo sapiens, UniProt Q13085, DEL44-44); experiment: recombinant hACC1 Transcreener ADP detection FP assay; assay type: biochemical; conditions: 50 μM ATP, 30 μM acetyl-CoA
T1 construct: recombinant baculovirus containing full length human ACC1 cDNA; made in house; host or cells: SF9 insect cells, recombinant baculovirus
Experimental: (§1) For example direct inhibition of ACC activity, for the compound of Formula (I) was determined using preparations of recombinant human ACC1 (rhACC1) and recombinant human ACC2 (rhACC2). Representative sequences of the recombinant human ACC1 and ACC2 that can be used in the assay are provided herein as SEQ ID NO. 1 and SEQ. ID NO. 2, respectively.
[1] Preparation of rhACC1. Two liters of SF9 cells, infected with recombinant baculovirus containing full length human ACC1 cDNA, were suspended in ice-cold lysis buffer (25 mM Tris, pH 7.5; 150 mM NaCl; 10% glycerol; 5 mM imidazole (EMD Bioscience; Gibbstown, N.J.); 2 mM TCEP (BioVectra; Charlottetown, Canada); Benzonase nuclease (10000 U/100 g cell paste; Novagen; Madison, Wis.); EDTA-free protease inhibitor cocktail (1 tab/50 mL; Roche Diagnostics; Mannheim, Germany). Cells were lysed by 3 cycles of freeze-thaw and centrifuged at 40,000×g for 40 minutes (4° C.). Supernatant was directly loaded onto a HisTrap FF crude column (GE Healthcare; Piscataway, N.J.) and eluted with an imidazole gradient up to 0.5 M over 20 column volumes (CV). ACC1-containing fractions were pooled and diluted 1:5 with 25 mM Tris, pH 7.5, 2 mM TCEP, 10% glycerol and direct loaded onto a CaptoQ (GE Healthcare) column and eluted with an NaCl gradient up to 1 M over 20 CV's. Phosphate groups were removed from purified ACC1 by incubation with lambda phosphatase (100 U/10 μM target protein; New England Biolabs; Beverly, Mass.) for 14 hours at 4° C.; okadaic acid was added (1 μM final concentration; Roche Diagnostics) to inhibit the phosphatase. Purified ACC1 was exchanged into 25 mM Tris, pH 7.5, 2 mM TCEP, 10% glycerol, 0.5 M NaCl by 6 hour dialysis at 4° C. Aliquots were prepared and frozen at −80° C.
[2] Measurement of rhACC1 inhibition. hACC1 was assayed in a Costar #3676 (Costar, Cambridge, Mass.) 384-well plate using the Transcreener ADP detection FP assay kit (Bellbrook Labs, Madison, Wis.) using the manufacturer's recommended conditions for a 50 μM ATP reaction. The final conditions for the assay were 50 mM HEPES, pH 7.2, 10 mM MgCl2, 7.5 mM tripotassium citrate, 2 mM DTT, 0.1 mg/mL BSA, 30 μM acetyl-CoA, 50 μM ATP, and 10 mM KHCO3 Typically, a 10 μl reaction was run for 120 min at 25° C., and 10 μl of Transcreener stop and detect buffer was added and the combination incubated at room temp for an additional 1 hour. The data was acquired on a Envision Fluorescence reader (Perkinelmer) using a 620 excitation Cy5 FP general dual mirror, 620 excitation Cy5 FP filter, 688 emission (S) and a 688 (P) emission filter.
(§2) The results using the recombinant hACC1 and recombinant hACC2 Transcreener assays described above are summarized in the table below for the Compounds of Formula (I) exemplified in the Examples above.

[2] = biological target: T2, recombinant human ACC2 (rhACC2) (Homo sapiens, UniProt O00763, V2141I); experiment: recombinant hACC2 Transcreener ADP detection FP assay; assay type: biochemical; conditions: 50 μM ATP, 30 μM acetyl-CoA
T2 construct: a full length Cytomax clone of ACC2 was purchased from Cambridge Bioscience Limited; made in house; host or cells: CHO cells, tetracycline-induced (PcDNA5 FRT TO-TOPO)
Experimental: as §1
[3] Preparation of rhACC2. Human ACC2 inhibition was measured using purified recombinant human ACC2 (hrACC2). Briefly, a full length Cytomax clone of ACC2 was purchased from Cambridge Bioscience Limited and was sequenced and subcloned into PcDNA5 FRT TO-TOPO (Invitrogen, Carlsbad, Calif.). The ACC2 was expressed in CHO cells by tetracycline induction and harvested in 5 liters of DMEM/F12 with glutamine, biotin, hygromycin and blasticidin with 1 μg/mL tetracycline (Invitrogen, Carlsbad, Calif.). The conditioned medium containing ACC2 was then applied to a Softlink Soft Release Avidin column (Promega, Madison, Wis.) and eluted with 5 mM biotin. 4 mgs of ACC2 were eluted at a concentration of 0.05 mg/mL (determined by A280) with an estimated purity of 95% ([…]). The purified ACC2 was dialyzed in 50 mM Tris, 200 mM NaCl, 4 mM DTT, 2 mM EDTA, and 5% glycerol. The pooled protein was frozen and stored at −80° C., with no loss of activity upon thawing. For measurement of ACC2 activity and assessment of ACC2 inhibition, test compounds were dissolved in DMSO and added to the rhACC2 enzyme as a 5× stock with a final DMSO concentration of 1%.
[4] Measurement of human ACC2 inhibition. hACC2 was assayed in a Costar #3676 (Costar, Cambridge, Mass.) 384-well plate using the Transcreener ADP detection FP assay kit (Bellbrook Labs, Madison, Wis.) using the manufacturer's recommended conditions for a 50 uM ATP reaction. The final conditions for the assay were 50 mM HEPES, pH 7.2, 5 mM MgCl2, 5 mM tripotassium citrate, 2 mM DTT, 0.1 mg/mL BSA, 30 μM acetyl-CoA, 50 μM ATP, and 8 mM KHCO3. Typically, a 10 μl reaction was run for 50 min at 25° C., and 10 μl of Transcreener stop and detect buffer was added and the combination incubated at room temp for an additional 1 hour. The data was acquired on an Envision Fluorescence reader (Perkinelmer) using a 620 excitation Cy5 FP general dual mirror, 620 excitation Cy5 FP filter, 688 emission (S) and a 688 (P) emission filter.
as §2

T2 sequence (O00763 whole entry V2141I): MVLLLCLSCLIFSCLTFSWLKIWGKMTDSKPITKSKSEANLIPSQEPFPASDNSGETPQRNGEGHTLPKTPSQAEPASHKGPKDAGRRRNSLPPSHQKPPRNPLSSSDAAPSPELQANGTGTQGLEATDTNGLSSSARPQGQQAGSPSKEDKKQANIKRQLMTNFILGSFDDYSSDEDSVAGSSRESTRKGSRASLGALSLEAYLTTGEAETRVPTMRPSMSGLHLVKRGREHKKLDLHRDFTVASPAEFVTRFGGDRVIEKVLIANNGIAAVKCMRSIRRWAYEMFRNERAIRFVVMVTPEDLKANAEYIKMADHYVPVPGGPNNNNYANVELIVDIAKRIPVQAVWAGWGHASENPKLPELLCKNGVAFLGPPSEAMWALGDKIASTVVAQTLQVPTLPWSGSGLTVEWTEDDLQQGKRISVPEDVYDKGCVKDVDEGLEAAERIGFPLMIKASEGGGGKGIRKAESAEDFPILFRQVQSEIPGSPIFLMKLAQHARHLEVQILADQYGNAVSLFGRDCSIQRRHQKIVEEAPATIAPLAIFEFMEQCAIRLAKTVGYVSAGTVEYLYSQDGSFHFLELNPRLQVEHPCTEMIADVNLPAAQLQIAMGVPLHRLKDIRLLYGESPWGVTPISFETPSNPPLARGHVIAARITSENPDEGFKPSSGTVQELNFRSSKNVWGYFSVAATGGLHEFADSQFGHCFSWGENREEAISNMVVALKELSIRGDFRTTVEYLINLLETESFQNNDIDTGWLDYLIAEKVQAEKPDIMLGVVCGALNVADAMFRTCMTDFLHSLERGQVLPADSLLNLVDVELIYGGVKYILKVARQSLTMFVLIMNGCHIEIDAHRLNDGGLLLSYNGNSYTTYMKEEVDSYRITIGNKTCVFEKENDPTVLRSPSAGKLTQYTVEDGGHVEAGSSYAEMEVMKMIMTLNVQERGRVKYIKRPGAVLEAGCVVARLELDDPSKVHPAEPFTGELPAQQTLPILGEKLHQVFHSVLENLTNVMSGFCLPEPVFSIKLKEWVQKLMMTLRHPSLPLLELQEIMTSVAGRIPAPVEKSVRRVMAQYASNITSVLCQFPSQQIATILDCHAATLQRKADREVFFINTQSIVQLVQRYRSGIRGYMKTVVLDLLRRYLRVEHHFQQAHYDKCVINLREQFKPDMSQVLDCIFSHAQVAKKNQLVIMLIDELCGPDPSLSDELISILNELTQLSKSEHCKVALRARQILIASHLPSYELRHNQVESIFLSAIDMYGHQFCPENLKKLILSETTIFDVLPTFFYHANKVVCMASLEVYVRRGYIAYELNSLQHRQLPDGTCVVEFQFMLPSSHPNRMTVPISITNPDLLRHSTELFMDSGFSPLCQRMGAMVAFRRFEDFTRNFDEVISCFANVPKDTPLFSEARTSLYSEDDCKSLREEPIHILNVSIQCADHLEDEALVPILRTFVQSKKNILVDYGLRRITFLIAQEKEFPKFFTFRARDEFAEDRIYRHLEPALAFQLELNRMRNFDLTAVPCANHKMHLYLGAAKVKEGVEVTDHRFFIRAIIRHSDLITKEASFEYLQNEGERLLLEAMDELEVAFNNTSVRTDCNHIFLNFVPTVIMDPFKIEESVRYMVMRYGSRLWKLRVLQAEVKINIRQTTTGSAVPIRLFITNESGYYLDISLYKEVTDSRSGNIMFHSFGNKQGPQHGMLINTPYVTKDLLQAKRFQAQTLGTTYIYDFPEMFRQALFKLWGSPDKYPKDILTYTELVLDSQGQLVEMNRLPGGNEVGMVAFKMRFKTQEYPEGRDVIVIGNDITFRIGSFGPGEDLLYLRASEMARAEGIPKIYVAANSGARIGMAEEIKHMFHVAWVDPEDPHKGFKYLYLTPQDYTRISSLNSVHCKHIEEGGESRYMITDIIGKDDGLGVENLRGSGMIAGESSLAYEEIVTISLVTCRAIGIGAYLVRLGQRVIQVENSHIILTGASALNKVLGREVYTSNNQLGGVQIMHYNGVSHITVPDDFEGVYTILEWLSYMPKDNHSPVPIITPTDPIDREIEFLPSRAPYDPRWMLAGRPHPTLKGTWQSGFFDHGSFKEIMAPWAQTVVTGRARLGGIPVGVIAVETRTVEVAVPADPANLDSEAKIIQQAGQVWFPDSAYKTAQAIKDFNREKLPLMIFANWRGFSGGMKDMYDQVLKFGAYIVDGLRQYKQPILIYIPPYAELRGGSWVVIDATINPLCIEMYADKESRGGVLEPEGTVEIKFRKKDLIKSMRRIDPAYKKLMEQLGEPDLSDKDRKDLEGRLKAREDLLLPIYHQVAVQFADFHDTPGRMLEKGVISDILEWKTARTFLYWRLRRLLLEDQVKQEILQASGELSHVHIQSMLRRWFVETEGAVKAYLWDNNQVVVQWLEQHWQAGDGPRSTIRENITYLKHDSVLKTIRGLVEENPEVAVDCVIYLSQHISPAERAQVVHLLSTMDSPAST

| Structure (SMILES) | pIC50 [1] | pIC50 [2] |
| --- | --- | --- |
| CC(C)n1ncc2c1C(=O)CC1(CCN(C(=O)c3ccc4c(C(N)=O)c[nH]c4c3)CC1)C2 [Example 1, 6-[(1-isopropyl-7-oxo-1,4,6,7-tetrahydro-1′H-spiro[indazole-5,4′-piperidin]-1′-yl)carbonyl]-1H-indole-3-carboxamide] | 8.22 | 8.85 |
| CC(C)n1ncc2c1C(=O)CC1(CCN(C(=O)c3ccc4[nH]nc(C(N)=O)c4c3)CC1)C2 [Example 2, 5-[(1-isopropyl-7-oxo-1,4,6,7-tetrahydro-1′H-spiro[indazole-5,4′-piperidin]-1′-yl)carbonyl]-1H-indazole-3-carboxamide] | 8.10 | 8.51 |
| CC(C)n1ncc2c1C(=O)CC1(CCN(C(=O)c3cnc4c(C(N)=O)c[nH]c4c3)CC1)C2 [Example 3, 6-[(1-isopropyl-7-oxo-1,4,6,7-tetrahydro-1′H-spiro[indazole-5,4′-piperidin]-1′-yl)carbonyl]-1H-pyrrolo[3,2-b]pyridine-3-carboxamide] | 7.49 | 7.89 |
| CC(C)n1ncc2c1C(=O)CC1(CCN(C(=O)c3ccc4c(C(N)=O)n[nH]c4c3)CC1)C2 [Example 4] | 8.19 | 8.54 |
| CC(C)n1ncc2c1C(=O)CC1(CCN(C(=O)c3cnc4[nH]cc(C(N)=O)c4c3)CC1)C2 [Example 5] | 7.77 | 8.24 |
| CC(C)n1ncc2c1C(=O)CC1(CCN(C(=O)c3ccc4[nH]cc(C(N)=O)c4c3)CC1)C2 [Example 7] | 8.25 | 8.80 |
| CC(C)n1ncc2c1C(=O)CC1(CCN(C(=O)c3ccc4[nH]c(N)nc4c3)CC1)C2 [Example 8] | 7.77 | 8.48 |
| CNC(=O)c1n[nH]c2ccc(C(=O)N3CCC4(CC3)CC(=O)c3c(cnn3C(C)C)C4)cc12 [Example 9] | 8.08 | 8.54 |
| CCNC(=O)c1n[nH]c2ccc(C(=O)N3CCC4(CC3)CC(=O)c3c(cnn3C(C)C)C4)cc12 [Example 10] | 8.21 | 8.57 |
| CC(C)n1ncc2c1C(=O)CC1(CCN(C(=O)c3ccc4[nH]nc(C(=O)NCC(F)(F)F)c4c3)CC1)C2 [Example 11] | 7.85 | 8.26 |
| CC(C)n1ncc2c1C(=O)CC1(CCN(C(=O)c3ccc4cc(C(N)=O)[nH]c4c3)CC1)C2 [Example 12] | 7.89 | 8.52 |
| CNc1ccc2ccc(C(=O)N3CCC4(CC3)CC(=O)c3c(cnn3C(C)C)C4)cc2n1 [Example 13] | 8.62 | 8.82 |
| CC(C)n1ncc2c1C(=O)CC1(CCN(C(=O)c3ccc4nc(N)ccc4c3)CC1)C2 [Example 15] | 7.85 | 8.59 |
| CC(C)n1ncc2c1C(=O)CC1(CCN(C(=O)c3cnc4c(Cl)c[nH]c4c3)CC1)C2 [Example 16] | 8.17 | 8.51 |
| CC(C)n1ncc2c1C(=O)CC1(CCN(C(=O)c3ccc4c(C#N)n[nH]c4c3)CC1)C2 [Example 17] | 7.72 | 7.96 |
| CC(C)n1ncc2c1C(=O)CC1(CCN(C(=O)c3cnc4[nH]nc(C(N)=O)c4c3)CC1)C2 [Example 18, 5-[(1-isopropyl-7-oxo-1,4,6,7-tetrahydro-1′H-spiro[indazole-5,4′-piperidin]-1′-yl)carbonyl]-1H-pyrazolo[3,4-b]pyridine-3-carboxamide] | 7.48 | 7.66 |
| CC(C)n1ncc2c1C(=O)CC1(CCN(C(=O)c3cnc4[nH]c(C(N)=O)cc4c3)CC1)C2 [Example 19, 5-[(1-isopropyl-7-oxo-1,4,6,7-tetrahydro-1′H-spiro[indazole-5,4′-piperidin]-1′-yl)carbonyl]-1H-pyrrolo[2,3-b]pyridine-2-carboxamide] | 7.20 | 7.82 |
| CNc1nc2cc(C(=O)N3CCC4(CC3)CC(=O)c3c(cnn3C(C)C)C4)ccc2[nH]1 [Example 20, 1-isopropyl-1′-{[2-(methylamino)-1H-benzimidazol-5-yl]carbonyl}-1,4-dihydrospiro[indazole-5,4′-piperidin]-7(6H)-one] | 7.89 | 8.52 |
| CC(C)n1ncc2c1C(=O)CC1(CCN(C(=O)c3ccc4[nH]c(C(N)=O)nc4c3)CC1)C2 [Example 21, 5-[(1-isopropyl-7-oxo-1,4,6,7-tetrahydro-1′H-spiro[indazole-5,4′-piperidin]-1′-yl)carbonyl]-1H-benzimidazole-2-carboxamide] | 7.33 | 8.17 |
| COc1cc2cc(C(=O)N3CCC4(CC3)CC(=O)c3c(cnn3C(C)C)C4)cnc2cc1C(N)=O [Example 22, 3-[(1-isopropyl-7-oxo-1,4,6,7-tetrahydro-1′H-spiro[indazole-5,4′-piperidin]-1′-yl)carbonyl]-6-methoxyquinoline-7-carboxamide] | 7.52 | 8.16 |
| CC(C)n1ncc2c1C(=O)CC1(CCN(C(=O)c3cnc4c(C#N)c[nH]c4c3)CC1)C2 [Example 23, 6-[(1-isopropyl-7-oxo-1,4,6,7-tetrahydro-1′H-spiro[indazole-5,4′-piperidin]-1′-yl)carbonyl]-1H-pyrrolo[3,2-b]pyridine-3-carbonitrile] | 7.49 | 7.82 |
| CC(C)n1ncc2c1C(=O)CC1(CCN(C(=O)c3cnc4ccc(OCC(N)=O)cc4c3)CC1)C2 [Example 24, 2-({3-[(1-isopropyl-7-oxo-1,4,6,7-tetrahydro-1′H-spiro[indazole-5,4′-piperidin]-1′-yl)carbonyl]quinolin-6-yl}oxy)acetamide] | 7.37 | 7.70 |
| CC(C)n1ncc2c1C(=O)CC1(CCN(C(=O)c3ccc4ccc(N)nc4c3)CC1)C2 [Example 25, 1′-[(2-aminoquinolin-7-yl)carbonyl]-1-isopropyl-1,4-dihydrospiro[indazole-5,4′-piperidin]-7(6H)-one] | 7.92 | 8.00 |
| CC(C)(C)n1ncc2c1C(=O)CC1(CCN(C(=O)c3ccc4[nH]nc(C(N)=O)c4c3)CC1)C2 [Example 26] | 8.13 | 8.68 |
| CC(C)(C)n1cc2c(n1)C(=O)CC1(CCN(C(=O)c3ccc4c(C(N)=O)n[nH]c4c3)CC1)C2 [Example 29] | 8.07 | 8.77 |
| CC(C)(C)n1cc2c(n1)C(=O)CC1(CCN(C(=O)c3cnc4[nH]cc(C(N)=O)c4c3)CC1)C2 [Example 30] | 8.03 | 8.59 |
